Tests used:
[1] = biological target: C. elegans Slo-1a (Caenorhabditis elegans, UniProt Q95V25); assay: In vitro assay 1: C. elegans Slo-1a, action at a recombinant C. elegans CHO cell line (membrane potential measurement)
[2] = test system: Nippostrongylus brasiliensis; assay: In vitro assay 2: Nippostrongylus brasiliensis (NIPOBR), acetylcholine esterase readout; conditions: adult worms, read-out: activity (reduction of AChE compared to negative control); for inhibition at 1 µg/mL: 1 μg/ml (1 ppm); for inhibition at 10 µg/mL: 10 μg/ml (10 ppm)
Summary of the method: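 Adult worms were washed in saline with antibiotics/antimycotic, then incubated with compound at 10 μg/ml (10 ppm) or 1 μg/ml (1 ppm) final, from DMSO stock. Acetylcholine esterase activity in a medium aliquot, compared with a negative control, served as the anthelmintic readout.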

[3] = test system: Cooperia curticei; assay: In vitro assay 5: Cooperia curticei (COOPCU), larval mortality; conditions: 120 h, read-out: activity (percentage of larval mortality)
Experimental: In Vitro Assay 5: Cooperia curticei (COOPCU)
Solvent: Dimethyl Sulfoxide
Approximately 40 nematode larvae (Cooperia curticei) are transferred into a test tube containing the compound solution.
After 5 days percentage of larval mortality is recorded. 100% efficacy means all larvae are killed; 0% efficacy means no larvae are killed.

[4] = test system: Litomosoides sigmodontis third-stage larvae; assay: In vitro assay 7: Litomosoides sigmodontis L3 (LTMOSI), motility; conditions: 72 h, reduction of motility vs negative control, 72 h incubation
Experimental: In Vitro Assay 7: Litomosoides Siqmodontis L3 (LTMOSI)
10 Litomosoides sigmodontis third-stage larvae, which were freshly isolated from the pleural cavity of an infected rodent, were added to wells of a microtitre plate containing a nutrient medium and the test compound in DMSO. Compounds were tested in concentration-response assay in duplicate. Larvae exposed to DMSO and no test compounds were used as negative controls. Larvae were evaluated after 72 h of incubation with the compound. Efficacy was determined as the reduction of motility in comparison to the negative control. Based on the evaluation of a wide concentration range, concentration-response curves as well as ECso-values were calculated.

[5] = log P by HPLC on reversed phase columns (Method L0; [a] acidic, [b] neutral range)
Experimental: Calibration was done with straight-chain alkan-2-ones (with 3 to 16 carbon atoms) with known log P values (measurement of log P values using retention times with linear interpolation between successive alkanones). Lambda-max-values were determined using UV-spectra from 200 nm to 400 nm and the peak values of the chromatographic signals.

[6] = test system: Dirofilaria immitis third-stage larvae; assay: In vitro assay 4: Dirofilaria immitis (DIROIM L4), motility of larvae; conditions: 72 h
[7] = test system: Dirofilaria immitis microfilariae; assay: In vitro assay 3: Dirofilaria immitis microfilariae (DIROIM L1), motility; conditions: 72 h, reduction of motility vs negative control, 72 h incubation
[8] = test system: Haemonchus contortus; assay: In vitro assay 6: Haemonchus contortus (HAEMCO), larval mortality; conditions: Haemonchus contortus, 120 h, read-out: activity (percentage of larval mortality)
Experimental: In Vitro Assay 6: Haemonchus contortus (HAEMCO)
Solvent: dimethyl sulfoxide
Approximately 40 larvae of the red stomach worm (Haemonchus contortus) are transferred into a test tube containing compound solution.
After 5 days the percentage of larval mortality is recorded. 100% efficacy means all larvae are killed, 0% efficacy means no larvae are killed.

C. elegans Slo-1a, sequence (Q95V25 whole entry): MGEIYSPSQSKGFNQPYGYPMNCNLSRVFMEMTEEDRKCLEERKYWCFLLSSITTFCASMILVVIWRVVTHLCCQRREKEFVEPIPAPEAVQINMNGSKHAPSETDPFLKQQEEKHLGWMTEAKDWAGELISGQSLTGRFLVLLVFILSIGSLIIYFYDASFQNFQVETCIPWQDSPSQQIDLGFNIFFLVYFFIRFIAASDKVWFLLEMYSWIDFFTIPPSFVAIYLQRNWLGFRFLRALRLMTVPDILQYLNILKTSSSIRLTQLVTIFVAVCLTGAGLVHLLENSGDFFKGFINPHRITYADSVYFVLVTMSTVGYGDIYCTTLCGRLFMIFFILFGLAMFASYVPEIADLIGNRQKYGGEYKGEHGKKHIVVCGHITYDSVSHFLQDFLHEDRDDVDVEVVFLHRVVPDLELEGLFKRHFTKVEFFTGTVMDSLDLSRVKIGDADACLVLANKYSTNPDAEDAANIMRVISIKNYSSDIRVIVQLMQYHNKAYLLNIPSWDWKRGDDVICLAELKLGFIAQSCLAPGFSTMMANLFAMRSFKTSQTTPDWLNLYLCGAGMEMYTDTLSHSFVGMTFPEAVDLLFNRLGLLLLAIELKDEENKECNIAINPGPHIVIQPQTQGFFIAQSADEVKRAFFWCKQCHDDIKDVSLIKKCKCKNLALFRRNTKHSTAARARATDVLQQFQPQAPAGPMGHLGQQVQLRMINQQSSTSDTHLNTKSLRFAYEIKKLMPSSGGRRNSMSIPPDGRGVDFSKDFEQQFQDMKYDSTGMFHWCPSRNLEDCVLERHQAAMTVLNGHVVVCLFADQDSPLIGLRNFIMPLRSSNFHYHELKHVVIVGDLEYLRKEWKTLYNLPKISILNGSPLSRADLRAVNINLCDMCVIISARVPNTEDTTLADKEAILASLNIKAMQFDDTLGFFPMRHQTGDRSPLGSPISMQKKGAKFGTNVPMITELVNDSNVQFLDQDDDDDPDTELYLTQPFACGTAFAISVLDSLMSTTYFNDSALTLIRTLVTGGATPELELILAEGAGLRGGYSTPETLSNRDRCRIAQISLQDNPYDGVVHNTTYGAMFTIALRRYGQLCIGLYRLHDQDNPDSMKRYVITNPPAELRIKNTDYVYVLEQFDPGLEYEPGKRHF

Row | SMILES | EC50 [1] [nM] | inhibition at 1 µg/mL [2] [%] | inhibition at 10 µg/mL [2] [%] | mortality at 20 ppm [3] [%] | EC50 [4] [µg/mL] | chromatographic logP [5] | EC50 [6] [µg/mL] | EC50 [7] [µg/mL] | mortality at 20 ppm [8] [%] | mortality at 4 ppm [8] [%]
1 | COc1c(F)ccc(-c2c(C)nn3c(C(C)C)c(C(=O)N[C@H]4CCOc5ccccc54)cnc23)c1F [Example 192] | 0.398 | > 80 | > 80 | 100 | < 0.1 | 4.32 | < 0.1 | < 0.1 | 90 | –
2 | Cc1nn2c(C(C)C)c(C(=O)N[C@H]3CCOc4ccccc43)cnc2c1-c1cc(Cl)cc(Cl)c1Cl [Example 234] | 1.26 | > 80 | > 80 | 90 | < 0.1 | 5.48 | < 0.1 | < 0.1 | 90 | –
3 | Cc1nn2c(C(C)C)c(C(=O)N[C@H]3CCOc4ccccc43)cnc2c1-c1c(F)ccc(Cl)c1F [Example 255] | 1.58 | > 80 | > 80 | 90 | < 0.1 | 4.72 | < 0.1 | < 0.1 | 90 | –
4 | Cc1nn2c(C(C)C)c(C(=O)N[C@H]3CCOc4ccccc43)cnc2c1-c1cc(Cl)ccc1F [Example 256] | 2.51 | – | – | 80 | < 0.1 | 4.87 | < 0.1 | < 0.1 | 80 | –
5 | Cc1nn2c(C(C)C)c(C(=O)N[C@H]3CCOc4ccccc43)cnc2c1-c1cccc(N(C)C)c1F [Example 260] | 3.16 | > 80 | > 80 | 90 | – | 4.18 | – | < 1 | 80 | –
6 | Cc1nn2c(C3CC3)c(C(=O)N[C@H]3CCc4ccccc43)cnc2c1-c1c(F)ccc(Cl)c1F [Example 436] | 1.58 | > 80 | > 80 | 80 | < 0.1 | 4.18 | < 0.1 | < 0.1 | 80 | –
7 | Cc1nn2c(C(C)C)c(C(=O)N[C@H]3CCOc4ccccc43)cnc2c1-c1cccc2c1CCN2C [Example 461] | 2 | > 80 | > 80 | 90 | < 0.1 | 4.11 | < 0.1 | < 1 | 80 | –
8 | Cc1nn2c(C3CC3)c(C(=O)N[C@H]3CCOc4ccccc43)cnc2c1-c1cccc(F)c1Cl [Example 472] | 1.58 | > 80 | – | 80 | < 0.1 | 3.72 | < 0.1 | < 0.1 | – | 80
9 | Cc1nn2c(N3CCOCC3)c(C(=O)N[C@H]3CCOc4ccccc43)cnc2c1-c1cccc(Cl)c1Cl [Example 517] | 0.631 | > 80 | > 80 | 100 | < 0.1 | 3.51 | < 0.1 | < 0.1 | 100 | –
10 | Cc1nn2c(N(C)C)c(C(=O)N[C@H]3CCOc4ccccc43)cnc2c1-c1cccc(Cl)c1Cl [Example 518] | 1 | > 80 | > 80 | 100 | < 0.1 | 3.94 | < 0.1 | < 0.1 | 100 | –
11 | COc1c(F)cc(F)c(-c2c(C)nn3c(N4CCOCC4)c(C(=O)N[C@H]4CCOc5ccccc54)cnc23)c1F [Example 531] | 1 | > 80 | – | 100 | < 0.1 | 2.88 | < 0.1 | < 0.1 | 100 | –

— patent US11001590B2, “Pyrazolopyrimidine derivatives” (BAYER ANIMAL HEALTH GMBH, priority 2016, dated 2021)
